# Tested on: blood insulin level
# Experiment: Effect of monoacylglycerol in inhibiting postprandial increase in blood insulin level in mouse (oral emulsion, ELISA, AUC)
# Assay type: in vivo, Male C57BL/6J mice
# Details: mice, TAG compared with only glucose, MAG in an amount of 1/10 or 1/5 of that of TAG compared with TAG/MAG0 group
# Procedure: Triolein was employed as a triacylglycerol, and 1-monoolein was employed as a monoacylglycerol.
# Male C57BL/6J mice (eight weeks old) were divided into groups (eight mice each). Through a probe, mice of the respective groups were orally administered the following substance: only glucose (2 mg/g-body weight) (Glucose); glucose (2 mg/g-body weight) plus triolein (TAG) (2 mg/g-body weight) emulsified with egg yolk lecithin (0.02 mg/g-body weight) (TAG/MAGO); TAG/MAGO supplemented with 1-monoolein (MAG) of 0.08, 0.2 and 0.4 mg/g-body weight, respectively (TAG/MAG1, TAG/MAG2 and TAG/MAG3). […] Blood was collected from the orbital vein of each mouse over time until 30 minutes after oral administration, and blood insulin level was measured, followed by calculation of the area under the curve (AUC) of a graph. Blood insulin level was measured through ELISA (insulin assay kit, product of Morinaga Institute of Biological Science, Inc.).
smiles,measurement,value
"CCCCCCCC/C=C\CCCCCCCC(=O)OCC(O)CO (stereo not shown) [MAG, 1-monoolein]","postprandial blood insulin level (amount of postprandial insulin secretion), result in words",decreased postprandial blood insulin level
